Test results reported in patent US5633277A, “Sulfonamide aminomethylene derivatives as immunosuppressants” (Miles Inc., priority 1995, dated 1997).

What was measured:
[1] = test system: human T-cells; assay: Suppression of Human T-Cell Proliferation Assay (mitogen-induced, [3H]-thymidine incorporation); format: cell-based; details: for IC50: Homo sapiens, T-cell, 72 hours incubation, mitogen stimulated, read-out: IC50 (inhibition of [3H]-thymidine incorporation of T-cells by 50%)
Description: 2) Human T Lymphocyte Inhibition
Inhibition of mitogen-induced T-cell proliferation can be used to profile immunosuppressive activity of test compounds. In the description of the assay which follows, mitogen-induced T-cell proliferation was used to test the inhibitory potencies of select compounds of the present invention.
In an assay similar to that described by Bradley in Mishell et al. (Eds.), 1980, Selected Methods in Cellular Immunology, pp 156-161, W. H. Freeman & Co., San Fransisco, Calif., T-cells were stimulated by incubation with phytohemagglutinin (PPIA) which binds to cell surface molecules, including the T-cell receptor. This stimulation results in proliferation which can be measured by incorporation of [^3 H]-thymidine into cellular DNA.
The immunosuppressive properties of the compounds of the present invention can be determined by adding various concentrations of the compounds to these cultures and measuring the effect on T-cell proliferation.
Suppression of Human T-Cell Proliferation Assay
Fresh LeukoPaks were obtained from the New York Blood Center, New York, N.Y. The cells, including erythrocytes and leukocytes, were diluted with Hank's Balanced Salt Solution (HBSS) (GIBCO, Grand Island, N.Y.) and layered over Lymphoprep (Nycomed Pharma AS, Oslo, Norway) in sterile 50 ml conical centrifuge tubes. Lymphocytes were isolated at the Hank's/Nycomed interface after centrifugation at 2000×g, 4° C. for 15 min. The lymphocytes were washed with Minimal Essential Medium (GIBCO) containing 2% fetal bovine serum (FBS) (Sigma Chemical Co., St. Louis, Mo.), 1% HEPES buffer (GIBCO) and 1% Penicillin-Stretomycin solution (GIBCO).
T-cells were further purified essentially by sheep erythrocyte (SRBC) rosetting as described by Morimoto et al., 1983, J. Immunol. 130:157. The isolated lymphocytes were adjusted to 2×10^7 cells/ml and 5 ml aliquots of the cell suspension were incubated for 10 minutes at room temperature with 5 ml of a 5% SRBC (Cappel, Organon Technika Corp., West Chester, Pa.) suspension. The cells were gently pelleted by centrifugation at 300 rpm for 10 minutes, followed by a 1 hour incubation at room temperature to allow rosette formation. The cells were gently resuspended,layered over Lymphoprep and centrifuged for 30 minutes at 500×g. The pellet, containing rosetted T-cells and SRBC was treated with ice cold buffered ammonium chloride (GIBCO) to lyse the erythrocytes. T-cells were washed twice with HBSS.
Purified T-cells were resuspended at 2×10^6 cells/ml in complete culture medium composed of RPMI-1640 (Whittaker Bioproducts, Walkerville, Md.) with 10% FBS (Sigma), 2 mM L-glutamine (GIBCO), 1% Penicillin-Streptomycin (GIBCO) and 15 mM HEPES (GIBCO). In 96-well plates (Becton Dickinson, Lincoln Park, N.J.), 0.1 ml aliquots of T-cell suspension were mixed with 0.05 ml of 40 μg/ml PPIA-M (Sigma). The compounds of this invention were dissolved in dimethylsulfoxide at 10 mM and various dilutions in complete medium were added in duplicate wells (0.05 ml/well). The plates were incubated at 37° C. in a humidified atmosphere of 5% carbon dioxide and 95% air for 72 hours.
Proliferation was assessed by measurement of [3H]-thymidine incorporation. During the last 6 hours of incubation, the cells were pulse labelled with 1 μCi/well of [3H]-thymidine (New England Nuclear, Boston, Mass.). The cells were harvested onto glass fiber paper using a plate harvester and the radioactivity incorporated into cellular DNA corresponding to individual wells was measured by standard liquid scintillation counting methods. The mean counts per minute (CPM) of replicate wells was calculated and linear regression analysis of mean CPM versus compound concentration was used to determine the concentration of compound which would inhibit [^3 H]-thymidine incorporation of T-cells by 50% (IC50).

[2] = test system: Lewis rats sensitized with Complete Freund's adjuvant; assay: Adjuvant Arthritis Model in the Rat; format: in vivo; details: uninjected hind paw, day 0 to day 16, 10 mg/kg/dose i.p.
Description: Rats sensitized to mycobacterial antigens in Complete Freund's Adjuvant can develop a rapidly destructive adjuvant arthritis. Adjuvant arthritis appears to be an autoimmune disease. Thus, T lymphocytes from immunized donors can transfer the disease to naive recipients (Pearson and Wood, 1964, J. Exp. Med. 120:547.) and susceptibility is controlled, at least in part, by class II MHC genes (Batisto, et al. 1982, Arthritis Rheum. 25:1194).
Adjuvant Arthritis Model in the Rat
Complete Freund's adjuvant is made by supplementing extra heavy mineral oil with 10 mg/ml heat killed Mycobacterium butyricum (Difco Laboratories, Detroit, Mich.). Lewis rats (Charles Rivers, Willmington, Mass.) are given a 0. 1 ml injection of adjuvant (1 mg/animal mycobacterium) subcutaneously into the right hind footpad. In the injected foot, an acute inflammatory reaction occurs which is characterized by erythema, edema and a predominantly neutrophilic cell infiltrate. This is followed by edema in the uninjected contralateral foot by days 10-12. This secondary response is accompanied by a predominantly mononuclear cell infiltrate, indicating the presence of cell-mediated immunity.
The immune response is quantitated by measuring the change in ankle diameter of the uninjected hind paw from day 0 to day 16 post sensitization. This is accomplished using a hand-held dial micrometer. […]

| Compound | IC50 [1] [nM] | inhibition of mitogen-induced T-cell proliferation (in words) [1] | Δ Ankle Diameter [2] [mm] | % Inhibition (of ankle swelling) ([2]; vs vehicle control) [%] |
| --- | --- | --- | --- | --- |
| CC(C)C[C@@H](CN1CCC[C@H]1C(=O)NCCCCc1ccccc1)NS(=O)(=O)CC12CCC(CC1=O)C2(C)C (single isomer, unassigned) [Example 7] | 2000 |  |  |  |
| CC(C)C[C@@H](CN1CCC[C@H]1C(=O)NCCCCc1ccccc1)NS(C)(=O)=O [Example 1, 1-[2-(S)-Methanesulfonylamino-4-methylpentyl]-L-proline 4-Phenylbutylamide] | 2000 | inhibited mitogen induced T-cell proliferation | 1.6 ± 0.6 | 51 |
| Cc1ccc(S(=O)(=O)N[C@@H](CC(C)C)CN2CCC[C@H]2C(=O)NCCCCc2ccccc2)cc1 [Example 2, 1-[2-(S)-(Toluene-4-sulfonylamino)-4-methylpentyl]-L-proline 4-Phenylbutylamide] | 8000 |  |  |  |
| CC(C)C[C@@H](CN1CCC[C@H]1C(=O)NCCCCc1ccccc1)NS(=O)(=O)c1cccc2cccnc12 [Example 3, 1-[2-(S)-(Quinoline-8-sulfonylamino)-4-methylpentyl]-L-proline 4-Phenylbutylamide] | 5000 | inhibited mitogen induced T-cell proliferation |  |  |
| CC(=O)Nc1nc(C)c(S(=O)(=O)N[C@@H](CC(C)C)CN2CCC[C@H]2C(=O)NCCCCc2ccccc2)s1 [Example 4, 1-[2-(S)-(2-Acetylamino-4-methyl-S-thiazolesulfonylamino)-4-methylpentyl]-L -proline 4-Phenylbutylamide] | 2000 |  |  |  |
| CC(C)C[C@@H](CN1CCC[C@H]1C(=O)NCCCCc1ccccc1)NS(=O)(=O)c1cccs1 [Example 5, 1-[2-(S)-(Thiophene-2-sulfonylamino)-4-methylpentyl]-L-proline 4-Phenylbutylamide] | 3000 |  |  |  |
| CC(C)C[C@@H](CN1CCC[C@H]1C(=O)NCCCCc1ccccc1)NS(=O)(=O)/C=C/c1ccccc1 [Example 6, 1-[2-(S)-(2-phenyl-ethenesulfonylamino)-4-methylpentyl]-L-proline 4-Phenylbutylamtde] | 5000 |  |  |  |
| CC(C)C[C@@H](CN1CCC[C@H]1C(=O)NCCCCc1ccccc1)NS(=O)(=O)c1ccc(-c2ccon2)s1 [Example 8, 1-[2-(S)-(5 - [Isoxazol-25-yl]-thiophene-2-sulfonylamino)-4-methylpentyl]-L-proline 4-Phenylbutylamide] | 1000 |  |  |  |
| CC(C)C[C@@H](CN1CCC[C@H]1C(=O)NCCCCc1ccccc1)NS(=O)(=O)c1c(C(C)C)cc(C(C)C)cc1C(C)C [Example 10, 1-[2-(S)-(2',4',6'-Triisopropylbenzenesulfonylamino)-4-methylpentyl]-L-proline 4-Phenylbutylamide] | 4000 |  |  |  |
| CC[C@H](C)[C@H](NC(=O)[C@@H]1CCCCN1C[C@@H](NS(C)(=O)=O)[C@@H](C)CC)C(=O)NCc1ccccc1 [Example 11] | > 15000 |  |  |  |
